Data: patent publication US4345938A, “Herbicidal 2-haloacetanilides” (Monsanto Company, priority 1980, dated 1982)
Where two headings read alike, the source gives them in different places.

Columns and labels:
Assay type in all cases: in vivo
Rice = assay: Field transplant rice test, applied 0 DAT, rice injury; conditions: for inhibition at 375 g/ha / inhibition at 750 g/ha / inhibition at 1500 g/ha / inhibition at 3000 g/ha: Oryza sativa, 0 h, read-out: Percent Inhibition, Rice; for inhibition at 375 g/ha: 0.375 Kg/Ha; for inhibition at 750 g/ha: 0.75 Kg/Ha; for inhibition at 1500 g/ha: 1.5 Kg/Ha; for inhibition at 3000 g/ha: 3.0 Kg/Ha
Experimental: (§1) In further comparative tests, a preferred compound of this invention (Example 1) was tested in the field with prior art Compounds A-D. These tests were conducted under conditions reflecting herbicide application times generally favorable to all herbicides in the test. The timing of application of herbicides to transplant rice is very important, whether, as in some instances, prior to transplanting the rice; in other instances, at the time of transplanting or else after transplanting. Application times are conventionally referred to as "days before transplant" (DBT) or "days after transplant" ("DAT"). The field test data in Table IV was obtained from a test in which the herbicides were applied at the time of transplant, i.e., "0 DAT", with observations being made weekly up to six weeks after transplant ("WAT") beginning at two weeks after transplant; for illustrative and representative purposes, only the early, middle and late period observations, i.e., 2 WAT, 4 WAT and 6 WAT, are shown in Table IV. The data in Table IV is for rates of application common to all herbicides in the test, i.e., from 3.0 kg/ha (2.67 lb/A) down to 0.375 kg/ha (0.34 lb/A). All herbicides were applied at their actual or expected use rates, i.e., as granules containing 2.5% by weight herbicide for the compound of Example 1, Compounds B, C and D and 5.0% by weight for Compound A.

Monochoria vaginalis = assay: Field transplant rice test, applied 0 DAT, MV; conditions: Pontederia vaginalis, 0 h, read-out: Percent Inhibition, MV; for inhibition at 375 g/ha: 0.375 Kg/Ha; for inhibition at 750 g/ha: 0.75 Kg/Ha; for inhibition at 1500 g/ha: 1.5 Kg/Ha; for inhibition at 3000 g/ha: 3.0 Kg/Ha
Experimental: (§2) The test data in Table III for all compounds was obtained under identical test conditions. The weeds used in the tests herein have the following abbreviations in the tables: Echinochloa crus-galli (EC), Monochloria vaginalis (MV), Cyperus Serotinus (CS), Eleocharis Kuroguwai (EK) and Sagittaria trifolia (ST).
as §1

Cyperus serotinus = assay: Field transplant rice test, applied 0 DAT, CS; conditions: 0 h, read-out: Percent Inhibition, CS; for inhibition at 375 g/ha: 0.375 Kg/Ha; for inhibition at 750 g/ha: 0.75 Kg/Ha; for inhibition at 1500 g/ha: 1.5 Kg/Ha; for inhibition at 3000 g/ha: 3.0 Kg/Ha
Experimental: as §2, §1

Eleocharis kuroguwai = assay: Field transplant rice test, applied 0 DAT, EK; conditions: 0 h, read-out: Percent Inhibition, EK; for inhibition at 375 g/ha: 0.375 Kg/Ha; for inhibition at 750 g/ha: 0.75 Kg/Ha; for inhibition at 1500 g/ha: 1.5 Kg/Ha; for inhibition at 3000 g/ha: 3.0 Kg/Ha
Experimental: as §2, §1

Sagittaria trifolia [1] = assay: Field transplant rice test, applied 0 DAT, ST; conditions: 0 h, read-out: Percent Inhibition, ST; for inhibition at 375 g/ha: 0.375 Kg/Ha; for inhibition at 750 g/ha: 0.75 Kg/Ha; for inhibition at 1500 g/ha: 1.5 Kg/Ha; for inhibition at 3000 g/ha: 3.0 Kg/Ha
Experimental: as §2, §1

Sagittaria trifolia [2] = assay: Field transplant rice test, applied 9 DAT, ST; conditions: 216 h, read-out: Percent Inhibition, ST; for inhibition at 375 g/ha: 0.375 Kg/Ha; for inhibition at 750 g/ha: 0.75 Kg/Ha; for inhibition at 1500 g/ha: 1.5 Kg/Ha; for inhibition at 3000 g/ha: 3.0 Kg/Ha
Experimental: as §2, §1
In Table V are presented field data showing the relative performance of the compound of Example 1 and Compounds A-D applied 9 DAT, with observations being made weekly from 3 WAT to 7 WAT; again, for illustrative and representative purposes, only the early, middle and late period observations are reported in Table V, the herbicide rates and concentrations of active ingredients the same as is shown in Table IV.

`CCCCOCN(C(=O)CCl)c1c(C)cccc1C(C)(C)C` [Compound C, 2'-methyl-6'-tert-butyl-N-(n-butoxymethyl)-2-chloroacetanilide] was tested, and the “injury rate in rice” value (Rice; 1.5 kg/ha (1.34 lb/A), after 4 WAT) was “greater than 15%”, the inhibition at 375 g/ha (Rice; 2 WAT) was 3% and the inhibition at 375 g/ha (Rice; 4 WAT) was 0%. The inhibition at 375 g/ha (Rice; 6 WAT) was 0%, the inhibition at 750 g/ha (Rice; 2 WAT) was 2% and the inhibition at 750 g/ha (Rice; 4 WAT) was 2%. The inhibition at 750 g/ha (Rice; 6 WAT) was 2%, the inhibition at 1500 g/ha (Rice; 2 WAT) was 12% and the inhibition at 1500 g/ha (Rice; 4 WAT) was 18%. For the same compound, the inhibition at 1500 g/ha (Rice; 6 WAT) was 18%, the inhibition at 3000 g/ha (Rice; 2 WAT) was 22% and the inhibition at 3000 g/ha (Rice; 4 WAT) was 27%. The inhibition at 3000 g/ha (Rice; 6 WAT) was 30%, the inhibition at 375 g/ha (Monochoria vaginalis; 2 WAT) was 100% and the inhibition at 375 g/ha (Monochoria vaginalis; 4 WAT) was 100%. For the same compound, the inhibition at 375 g/ha (Monochoria vaginalis; 6 WAT) was 97%, the inhibition at 750 g/ha (Monochoria vaginalis; 2 WAT) was 100% and the inhibition at 750 g/ha (Monochoria vaginalis; 4 WAT) was 100%. The inhibition at 750 g/ha (Monochoria vaginalis; 6 WAT) was 100%, the inhibition at 1500 g/ha (Monochoria vaginalis; 2 WAT) was 100% and the inhibition at 1500 g/ha (Monochoria vaginalis; 4 WAT) was 100%. It also gave an inhibition at 1500 g/ha (Monochoria vaginalis; 6 WAT) of 100%, an inhibition at 3000 g/ha (Monochoria vaginalis; 2 WAT) of 100% and an inhibition at 3000 g/ha (Monochoria vaginalis; 4 WAT) of 100%. It also gave an inhibition at 3000 g/ha (Monochoria vaginalis; 6 WAT) of 100%, an inhibition at 375 g/ha (Cyperus serotinus; 2 WAT) of 93% and an inhibition at 375 g/ha (Cyperus serotinus; 4 WAT) of 92%. It also gave an inhibition at 375 g/ha (Cyperus serotinus; 6 WAT) of 72%, an inhibition at 750 g/ha (Cyperus serotinus; 2 WAT) of 70% and an inhibition at 750 g/ha (Cyperus serotinus; 4 WAT) of 82%. The inhibition at 750 g/ha (Cyperus serotinus; 6 WAT) was 77%, the inhibition at 1500 g/ha (Cyperus serotinus; 2 WAT) was 93% and the inhibition at 1500 g/ha (Cyperus serotinus; 4 WAT) was 99%. It also gave an inhibition at 1500 g/ha (Cyperus serotinus; 6 WAT) of 100%, an inhibition at 3000 g/ha (Cyperus serotinus; 2 WAT) of 95% and an inhibition at 3000 g/ha (Cyperus serotinus; 4 WAT) of 100%. For the same compound, the inhibition at 3000 g/ha (Cyperus serotinus; 6 WAT) was 100%, the inhibition at 375 g/ha (Eleocharis kuroguwai; 2 WAT) was 63% and the inhibition at 375 g/ha (Eleocharis kuroguwai; 4 WAT) was 52%. It also gave an inhibition at 375 g/ha (Eleocharis kuroguwai; 6 WAT) of 18%, an inhibition at 750 g/ha (Eleocharis kuroguwai; 2 WAT) of 68% and an inhibition at 750 g/ha (Eleocharis kuroguwai; 4 WAT) of 58%. The inhibition at 750 g/ha (Eleocharis kuroguwai; 6 WAT) was 18%, the inhibition at 1500 g/ha (Eleocharis kuroguwai; 2 WAT) was 85% and the inhibition at 1500 g/ha (Eleocharis kuroguwai; 4 WAT) was 93%. For the same compound, the inhibition at 1500 g/ha (Eleocharis kuroguwai; 6 WAT) was 67%, the inhibition at 3000 g/ha (Eleocharis kuroguwai; 2 WAT) was 82% and the inhibition at 3000 g/ha (Eleocharis kuroguwai; 4 WAT) was 90%. The inhibition at 3000 g/ha (Eleocharis kuroguwai; 6 WAT) was 80%, the inhibition at 375 g/ha (Sagittaria trifolia [1]; 2 WAT) was 30% and the inhibition at 375 g/ha (Sagittaria trifolia [1]; 4 WAT) was 5%. It also gave an inhibition at 375 g/ha (Sagittaria trifolia [1]; 6 WAT) of 0%, an inhibition at 750 g/ha (Sagittaria trifolia [1]; 2 WAT) of 33% and an inhibition at 750 g/ha (Sagittaria trifolia [1]; 4 WAT) of 18%. It also gave an inhibition at 750 g/ha (Sagittaria trifolia [1]; 6 WAT) of 8%, an inhibition at 1500 g/ha (Sagittaria trifolia [1]; 2 WAT) of 38% and an inhibition at 1500 g/ha (Sagittaria trifolia [1]; 4 WAT) of 30%. For the same compound, the inhibition at 1500 g/ha (Sagittaria trifolia [1]; 6 WAT) was 17%, the inhibition at 3000 g/ha (Sagittaria trifolia [1]; 2 WAT) was 53% and the inhibition at 3000 g/ha (Sagittaria trifolia [1]; 4 WAT) was 35%. For the same compound, the inhibition at 3000 g/ha (Sagittaria trifolia [1]; 6 WAT) was 18%, the inhibition at 375 g/ha (Sagittaria trifolia [2]; 3 WAT) was 47% and the inhibition at 375 g/ha (Sagittaria trifolia [2]; 5 WAT) was 10%. For the same compound, the inhibition at 375 g/ha (Sagittaria trifolia [2]; 7 WAT) was 2%, the inhibition at 750 g/ha (Sagittaria trifolia [2]; 3 WAT) was 32% and the inhibition at 750 g/ha (Sagittaria trifolia [2]; 5 WAT) was 8%. For the same compound, the inhibition at 750 g/ha (Sagittaria trifolia [2]; 7 WAT) was 0%, the inhibition at 1500 g/ha (Sagittaria trifolia [2]; 3 WAT) was 48% and the inhibition at 1500 g/ha (Sagittaria trifolia [2]; 5 WAT) was 17%. It also gave an inhibition at 1500 g/ha (Sagittaria trifolia [2]; 7 WAT) of 7%, an inhibition at 3000 g/ha (Sagittaria trifolia [2]; 3 WAT) of 30% and an inhibition at 3000 g/ha (Sagittaria trifolia [2]; 5 WAT) of 13%. The inhibition at 3000 g/ha (Sagittaria trifolia [2]; 7 WAT) was 3%.
